In publication PMC6131557, “Selective Cytotoxicity of Dihydroorotate Dehydrogenase Inhibitors to Human Cancer Cells Under Hypoxia and Nutrient-Deprived Conditions” (Frontiers in Pharmacology, 2018):
Read-outs that look alike come from different tables or passages of the source.

Assays:
[1] = target: T1, human dihydroorotate dehydrogenase (HsDHODH) (Homo sapiens, UniProt Q02127); assay: Inhibition of recombinant human DHODH enzyme activity; assay type: biochemical; conditions: for IC50: recombinant human DHODH; for inhibition at 1 µM: at 1,000 nM, read-out: Inhibition of HsDHODH activity (value in parentheses); for fold increase in the IC50 in comparison to 3: HsDHODH IC50 versus compound 3
T1 construct: made in house
T1 sequence (Q02127 whole entry): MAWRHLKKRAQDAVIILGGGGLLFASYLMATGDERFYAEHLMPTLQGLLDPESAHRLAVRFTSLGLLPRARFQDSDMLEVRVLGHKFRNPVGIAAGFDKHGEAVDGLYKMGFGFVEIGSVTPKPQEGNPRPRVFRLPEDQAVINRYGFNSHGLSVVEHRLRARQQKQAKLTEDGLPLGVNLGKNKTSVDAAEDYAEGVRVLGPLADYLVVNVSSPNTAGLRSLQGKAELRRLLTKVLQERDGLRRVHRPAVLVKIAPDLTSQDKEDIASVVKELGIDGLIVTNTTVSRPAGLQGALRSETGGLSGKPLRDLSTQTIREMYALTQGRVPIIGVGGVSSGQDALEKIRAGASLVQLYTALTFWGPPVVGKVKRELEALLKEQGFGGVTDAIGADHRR

DLD-1 cells = assay: Cytotoxicity assay (Cell Counting Kit-8 / WST-8) on DLD-1 cells; assay type: cell-based, human; conditions: at higher concentrations (100 μM); Supplementary Figure S7
Experimental: For hypoxia and nutrient-deprived culture conditions, cells were incubated under 1% oxygen in glucose and glutamine-free DMEM (Gibco) without FBS.
DLD-1 or HDF cells were seeded at 2.5 × 10^4 cells/well on a 96-well plate with normal medium, and cultured overnight under normal culture condition. The cells were washed with PBS and the medium was replaced to either normal medium or glucose and glutamine-free DMEM without FBS. Test compounds or DMSO as a control were added to the wells. The cells in normal medium were cultured under normal culture conditions, while cells in nutrient-deprived medium were cultured under hypoxia condition. After 24 or 48 h incubation, the cells were washed with PBS, 100 μl of fresh normal medium, and 10 μl of Cell Counting Kit-8 solution (Donjindo, Japan) was added to each well. After 3 h incubation under normal culture condition, the absorbance was measured at 450 nm using SpectraMax M2e-TUY microplate reader (Molecular Devices). Cell viability of test wells was calculated based on absorbance of control wells containing DMSO according to manufacturer’s protocol.

Complex II = target: T2, Complex II (Bos taurus, UniProt P35720+Q3T189+Q95123); assay: Succinate:quinone reductase (complex II) activity, bovine mitochondria; assay type: biochemical
T2 construct: from tissue; host or cells: bovine mitochondrial fraction / sub-mitochondrial particles
T2 sequence (P31039 45-665 partner limits assumed): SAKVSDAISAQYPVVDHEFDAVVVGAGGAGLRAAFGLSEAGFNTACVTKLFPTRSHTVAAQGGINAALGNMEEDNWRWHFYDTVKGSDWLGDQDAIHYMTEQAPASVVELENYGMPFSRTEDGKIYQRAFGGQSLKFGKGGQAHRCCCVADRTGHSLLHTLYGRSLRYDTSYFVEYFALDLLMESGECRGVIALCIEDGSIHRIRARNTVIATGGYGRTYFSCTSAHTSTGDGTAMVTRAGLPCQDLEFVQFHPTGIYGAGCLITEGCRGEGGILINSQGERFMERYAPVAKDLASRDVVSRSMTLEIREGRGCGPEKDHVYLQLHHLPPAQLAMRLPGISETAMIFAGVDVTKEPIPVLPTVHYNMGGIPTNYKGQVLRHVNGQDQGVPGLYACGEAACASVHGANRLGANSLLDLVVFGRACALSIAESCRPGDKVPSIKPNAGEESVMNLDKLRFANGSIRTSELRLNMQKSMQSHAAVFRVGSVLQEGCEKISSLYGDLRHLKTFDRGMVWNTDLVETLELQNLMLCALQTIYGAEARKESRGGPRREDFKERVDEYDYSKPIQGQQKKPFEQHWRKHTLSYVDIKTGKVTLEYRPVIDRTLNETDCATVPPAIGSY
T2 sequence (Q3T189 29-280): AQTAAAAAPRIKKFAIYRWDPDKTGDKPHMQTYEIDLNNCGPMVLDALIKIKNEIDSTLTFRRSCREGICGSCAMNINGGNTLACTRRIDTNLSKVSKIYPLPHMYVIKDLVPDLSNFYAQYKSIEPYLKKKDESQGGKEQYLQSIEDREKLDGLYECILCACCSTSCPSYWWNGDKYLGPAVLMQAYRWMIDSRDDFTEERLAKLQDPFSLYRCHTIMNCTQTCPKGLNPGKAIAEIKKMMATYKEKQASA
T2 sequence (P35720 30-169): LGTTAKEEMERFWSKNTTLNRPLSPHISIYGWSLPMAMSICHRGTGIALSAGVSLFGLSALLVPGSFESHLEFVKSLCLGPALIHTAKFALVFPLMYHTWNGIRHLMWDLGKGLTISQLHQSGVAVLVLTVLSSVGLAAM
T2 sequence (Q95123 56-158): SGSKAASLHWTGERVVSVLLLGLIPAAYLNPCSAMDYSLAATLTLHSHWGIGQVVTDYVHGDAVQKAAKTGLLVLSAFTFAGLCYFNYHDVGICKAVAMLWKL

Complexes I–III = assay: NADH-cytochrome c reductase (complexes I–III) activity, bovine mitochondria; assay type: biochemical
Experimental: (§1) Recombinant human DHODH was purified, crystallized, and assayed as previously described ([Inaoka et al., 2016]) without modification. Bovine mitochondrial fractions were prepared as previously described ([Kita et al., 1988]) and NADH dehydrogenase (complex I), succinate:quinone reductase (complex II), quinol oxidase (complexes III–IV), NADH-cytochrome c reductase (complexes I–III), and succinate-cytochrome c (complexes II–III) activities were assayed following an established method ([Takamiya et al., 1986]; [Miyadera et al., 2001]; [Matsumoto et al., 2008]; [Kido et al., 2010]; [Nihashi et al., 2017]).

Complex II–III = assay: Succinate-cytochrome c reductase (complexes II–III) activity, bovine mitochondria; assay type: biochemical
Experimental: as §1

Complex III = target: T3, Complex III (Bos taurus, UniProt P00157); assay: Quinol oxidase (complex III) activity, bovine mitochondria; assay type: biochemical; conditions: ubiquinol oxidase activity
T3 construct: from tissue; host or cells: bovine mitochondrial fraction / sub-mitochondrial particles

Complex I = assay: NADH dehydrogenase (complex I) activity, bovine mitochondria; assay type: biochemical; conditions: at 5 μM
Experimental: as §1

[2] = purified enzyme fixed at 10 nM, read-out: IC50 (nM), inhibition of human DHODH

Structure (SMILES) | IC50 [1, 2] [nM] | inhibition at 1 µM [1] [%] | also measured
CCCCCC(C)CCc1c(O)c(Cl)c(C)c(C=O)c1O (stereo not shown) [Compound 18] | > 1000 | 37 | 
C/C(=C\Cc1c(O)c(Cl)c(C)c(CO)c1O)CC/C=C(\C)COC(=O)C(C)(C)C [Compound 20] | 3530 |  | 
C/C(O)=C(\C#N)C(=O)Nc1ccc(C(F)(F)F)cc1 [Compound A771726, teriflunomide, reference compound] |  |  | effect on DLD-1 under hypoxia/nutrient-deprived conditions (in words) (DLD-1 cells): specific inhibition under hypoxia/nutrient-deprived condition was observed
C=C(C)[C@H]1Cc2c(ccc3c2O[C@@H]2COc4cc(OC)c(OC)cc4[C@@H]2C3=O)O1 [Rotenone, reference compound] |  |  | inhibition at 5 µM (Complex II): 6.4 ± 7.9%; IC50 ([1]; IC50 (μM) HsDHODH, Table 6): > 10000 nM; IC50 (Complexes I–III): 0.0063 ± 0.0001 µM; IC50 (Complex II–III): > 10 µM; inhibition at 5 µM (Complex III): 1.1 ± 2.8%; Inhibition (%) Complex I (Complex I): 94 ± 1.5%

Second part, led by results:

IC50 [1, 2] [nM] | inhibition at 1 µM [1] [%] | Structure (SMILES) | also measured
71.4 ± 2.4 |  | CCCCC/C(C)=C/Cc1c(O)c(Cl)c(C)c(C=O)c1O [Compound 17] | 
> 1000 | 3 | CC(=O)c1c(C)c(Cl)c(O)c(C/C=C(\C)CC/C=C(\C)C2CC(=O)C(C)(C)O2)c1O (stereo not shown) [Compound 19] | HsDHODH inhibition activity (in words) [1]: lost
> 1000 | 3 | COc1c(Cl)c(C)c(C=O)c(O)c1C/C=C(\C)CC/C=C(\C)[C@@H]1CC(=O)C(C)(C)O1 [Compound 21] | 
> 1000 | 20 | CC(C)=CCC/C(C)=C/Cc1c(O)cc(C)c(C=O)c1O [Compound 22, Colletorin B] | fold increase in the IC50 in comparison to 3 [1]: > 13 fold
> 1000 | 36 | CC(C)=CCC/C(C)=C/Cc1c(O)c(Cl)cc(C=O)c1O [Compound 24] | fold increase in the IC50 in comparison to 3 [1]: > 13 fold
